Measurements taken from US20090163586A1, “Bis-(Sulfonylamino) Derivatives in Therapy 205” (AstraZeneca AB, priority 2007, published 2009).

Target: T1, human mPGES-1 (Homo sapiens, UniProt O14684)
T1 sequence (O14684 1-152): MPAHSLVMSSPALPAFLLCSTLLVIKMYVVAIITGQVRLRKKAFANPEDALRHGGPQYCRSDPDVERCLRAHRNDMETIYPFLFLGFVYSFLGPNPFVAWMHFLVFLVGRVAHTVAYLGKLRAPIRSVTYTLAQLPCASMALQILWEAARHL
Assay: Microsomal prostaglandin E synthase biochemical assay
Conditions: microsome preparation containing human mPGES-1; PGH2 10.8 μM, GSH 2.5 mM, pH 6.8; PGE2 by HTRF; average of at least n=2
How it was run: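 Human mPGES-1 microsomes at 2 μg/mL were pre-incubated 15 min with compound (60 μM to 0.002 μM) in 50 mM potassium phosphate pH 6.8 with 2.5 mM GSH. The reaction was started with 10.8 μM PGH2 and stopped after 1 minute with acidic ferric chloride/citrate. PGE2 was quantified by HTRF; IC50 is the mean of at least 2 runs.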

IC50 [µM]	Compound
4	NS(=O)(=O)c1cc(F)ccc1NS(=O)(=O)/C=C/c1ccccc1C(F)(F)F [Example 100, 5-Fluoro-2-[[(E)-2-[2-(trifluoromethyl)phenyl]ethenyl]sulfonylamino]-benzenesulfonamide]
1.6	NS(=O)(=O)c1cc(F)ccc1NS(=O)(=O)/C=C/c1ccc(C(F)(F)F)cc1 [Example 101, 5-Fluoro-2-[[(E)-2-[4-(trifluoromethyl)phenyl]ethenyl]sulfonylamino]-benzenesulfonamide]
0.85	NS(=O)(=O)c1cc(F)ccc1NS(=O)(=O)/C=C/c1ccc(Br)cc1 [Example 102, 2-[[(E)-2-(4-Bromophenyl)ethenyl]sulfonylamino]-5-fluoro-benzenesulfonamide]
9.2	NS(=O)(=O)c1ccccc1NS(=O)(=O)/C=C/c1c(F)cccc1F [Example 103, 2-[[(E)-2-(2,6-Difluorophenyl)ethenyl]sulfonylamino]benzenesulfonamide]
4.6	NS(=O)(=O)c1ccccc1NS(=O)(=O)/C=C/c1ccccc1C(F)(F)F [Example 104, 2-[[(E)-2-[2-(Trifluoromethyl)phenyl]ethenyl]sulfonylamino]benzenesulfonamide]
0.67	NS(=O)(=O)c1ccccc1NS(=O)(=O)/C=C/c1ccc(C(F)(F)F)cc1 [Example 105, 2-[[(E)-2-[4-(Trifluoromethyl)phenyl]ethenyl]sulfonylamino]benzenesulfonamide]
0.074	NS(=O)(=O)c1ccccc1NS(=O)(=O)/C=C/c1ccc(Br)cc1 [Example 106, 2-[[(E)-2-(4-Bromophenyl)ethenyl]sulfonylamino]benzenesulfonamide]
0.14	NS(=O)(=O)c1ccccc1NS(=O)(=O)CCc1ccc(Br)cc1 [Example 107, 2-[(E)-2-(4-Bromophenyl)ethylsulfonylamino]benzenesulfonamide]
4.9	CC(CS(=O)(=O)Nc1ccccc1S(N)(=O)=O)c1ccc(Cl)cc1 (stereo not drawn) [Example 108, 2-[2-(4-Chlorophenyl)propylsulfonylamino]benzenesulfonamide]
6.1	COc1ccccc1CCS(=O)(=O)Nc1ccccc1S(N)(=O)=O [Example 109, 2-[2-(2-Methoxyphenyl)ethylsulfonylamino]benzenesulfonamide]
0.49	NS(=O)(=O)c1ccccc1NS(=O)(=O)CCc1ccc2ccccc2c1 [Example 110, 2-(2-Naphthalen-2-ylethylsulfonylamino)benzenesulfonamide]
0.76	NS(=O)(=O)c1ccc(F)cc1NS(=O)(=O)CCc1ccc2ccccc2c1 [Example 111, 4-Fluoro-2-(2-naphthalen-2-ylethylsulfonylamino)benzenesulfonamide]
6.1	NS(=O)(=O)c1ccccc1NS(=O)(=O)Cc1ccc(Cl)cc1 [Example 112, 2-[(4-Chlorophenyl)methylsulfonylamino]benzenesulfonamide]
0.48	NS(=O)(=O)c1ccccc1NS(=O)(=O)c1cccc(-c2cccc(Cl)c2Cl)c1 [Example 113, 2-[[3-(2,3-Dichlorophenyl)phenyl]sulfonylamino]benzenesulfonamide]
0.83	NS(=O)(=O)c1ccccc1NS(=O)(=O)c1cccc(-c2cc(F)cc(F)c2)c1 [Example 114, 2-[[3-(3,5-difluorophenyl)phenyl]sulfonylamino]benzenesulfonamide]
2.6	COc1ccc(Cl)cc1-c1cccc(S(=O)(=O)Nc2ccccc2S(N)(=O)=O)c1 [Example 115, 3-(5-Chloro-2-methoxy-phenyl)-N-(2-sulfamoylphenyl)benzenesulfonamide]
1.7	N#Cc1cccc(-c2cccc(S(=O)(=O)Nc3ccccc3S(N)(=O)=O)c2)c1 [Example 116, 2-[[3-(3-Cyanophenyl)phenyl]sulfonylamino]benzenesulfonamide]
1.3	N#Cc1ccc(-c2cccc(S(=O)(=O)Nc3ccccc3S(N)(=O)=O)c2)cc1 [Example 117, 2-[[3-(4-Cyanophenyl)phenyl]sulfonylamino]benzenesulfonamide]
